Assay results as given in patent US20210145846A1 (Kashiv BioSciences, LLC, priority 2017, published 2021).
Values after ≈ are worked out from the molar mass of the structure shown. Read-outs that look alike come from different tables or passages of the source. Blank lines part the entries; values can stand above or below the molecule they belong to.

Columns and labels:
[1] = Viscosities of the components in the prototype formulations; type: physicochemical; conditions: neat excipient
Source text: Once injected into the muscle tissue, it forms a depot and the formulation components begin to diffuse into the surrounding tissue and the circulatory system. The rate of diffusion for each component depends on the solubility, permeability, and viscosity of the formulation in the local environment of the depot. Notwithstanding the complexity of the in vivo situation, and without wishing to be held to a particular theory, it is expected that the viscosity of the formulation is a critical factor that affects the diffusion of the formulation components from the site of injection, including from the point of view of ease of injection, diffusion into the muscle tissue, and rate of absorption.

[2] = Storage stability of Formulations 1-3 (dl-α-tocopherol assay, total impurities); type: physicochemical; conditions: various storage conditions
Description: Three-week and four-week storage stabilities, as per Table 15, of Formulations 1-3 were determined under standard storage conditions of 5° C., storage at room temperature, and storage at 40° C./75% RH. The total impurities were less than 1% at the end of three- or four-week storage at 5° C., RT, and 40° C./75% RH.

[3] = cited from earlier work
[4] = test system: HR-positive metastatic breast cancer; conditions: cited from earlier work

Viscosity (cp) [1]: 5.40 cp
Molecule: OCc1ccccc1 [Benzyl alcohol]

Viscosity (cp) [1]: 42.00 cp
Molecule: CC(O)CO (stereo not shown) [Propylene glycol]

Stability of dl-α-Tocopherol in the formulations [2]: unstable and susceptible to degradation
Molecule: Cc1c(C)c2c(c(C)c1O)CCC(C)(CCCC(C)CCCC(C)CCCC(C)C)O2 (racemic) [dl-α-Tocopherol, dl-α-tocopherol]

Viscosity (cp) [1]: 1.04 cp
Molecule: CCO [Ethyl alcohol (Ethanol), Ethanol]

Viscosity (cp) [1]: 1000-2000 cp
Molecule: sorbitan monolaurate [SPAN ® 20]

Molecule: C[C@]12CC[C@@H]3c4ccc(O)cc4C[C@@H](CCCCCCCCC[S+]([O-])CCCC(F)(F)C(F)(F)F)[C@H]3[C@@H]1CC[C@@H]2O (stereo partly drawn) [Fulvestrant, 7α-[9-[(4,4,5,5,5-pentafluoropentyl)sulfinyl]nonyl]-estra-1,3,5(10)-triene-3,17β-diol]
Solubility (mg/ml) at 25° C. ([3]; in Benzyl alcohol, 25° C.): >200 mg/mL
Solubility (mg/ml) at 25° C. ([3]; in Benzyl benzoate, 25° C.): 6.15 mg/mL (≈ 10.1 mM)
Solubility (mg/ml) at 25° C. ([3]; in Ethanol, 25° C.): >200 mg/mL
Solubility (mg/ml) at 25° C. ([3]; in Ethyl oleate, 25° C.): 1.25 mg/mL (≈ 2.06 mM)
Solubility (mg/ml) at 25° C. ([3]; in Isopropyl myristate, 25° C.): 0.80 mg/mL (≈ 1.32 mM)
Solubility (mg/ml) at 25° C. ([3]; in Migloyl 810, 25° C.): 3.06 mg/mL (≈ 5.04 mM)
Solubility (mg/ml) at 25° C. ([3]; in Migloyl 812, 25° C.): 2.72 mg/mL (≈ 4.48 mM)
Solubility (mg/ml) at 25° C. ([3]; in Polyethylene glycol (PEG 400), 25° C.): 22.5 mg/mL (≈ 37.1 mM)
Solubility (mg/ml) at 25° C. ([3]; in Propylene glycol, 25° C.): 4.0 mg/mL (≈ 6.59 mM)
Solubility (mg/ml) at 25° C. ([3]; in SPAN ® 85, 25° C.): 3.79 mg/mL (≈ 6.25 mM)
Solubility (mg/ml) at 25° C. ([3]; in Sesame oil, 25° C.): 0.58 mg/mL (≈ 0.956 mM)
Median overall survival ([4]; fulvestrant 250 mg IM): 22.3 months
Median overall survival ([4]; fulvestrant 500 mg IM): 26.4 months
Progression-free survival (PFS) ([4]; fulvestrant 500 mg compared with 250 mg): statistically significant increase
